Patent publication US11298346B2, “Methods for treatment of fibrotic diseases” (Beta Cat Pharmaceuticals, Inc., priority 2017, dated 2022)
“And” between values parts separate entries of the source, which are not always exact repeats. Identical values can stand only once.

Experiments:
[1] = test system: CTNNB1, EGR1, NRG1 and WISP1 mRNA levels; assay: TaqMan gene expression analyses in DD180, PF180 and CT38 cells; assay type: cell-based, human
Experimental: Tegavivint (BC-2059) powder was reconstituted it in 100% dimethyl sulfoxide (DMSO) to a 10_mM stock solution. The stock was diluted to 100 nM in serum-free media (α minimal essential medium, αMEM), and further diluted to 100 pM in serum-free αMEM immediately before the analyses were performed. Serial dilutions from 100 pM down to 0.78 pM were assessed in various assays. 0.001% DMSO in αMEM was used as the vehicle control, and αMEM alone was used as an untreated control, in a subset of analyses.
Gene expression analyses were assessed in triplicate on a Real-Time PCR ABI Prism 7500. Total RNA samples were derived from syngeneic DD and PF cells cultured from the explant tissues from one patient with Dupuytren's disease (DD180 and PF 180) and 1 patient with no history of Dupuytren's disease (CT38) as a normal allogeneic control. RNA quality was assessed on an Agilent 2100 Bioanalyzer and 2 μg of high quality total RNA was reverse transcribed into cDNA first strand using the High-Capacity cDNA Archive Kit (Applied Biosystems) in accordance with the manufacturer's instructions. TaqMan gene expression assays were used to measure CTNNB1, EGR1, NRG1 and WISP1 mRNA levels after 48 hrs of treatment in cells cultured on type-1 collagen coated 6 well trays. The ΔΔCT method was used after confirmation of parallel PCR amplification efficiencies of target and housekeeping genes PCR reactions were carried out under the following conditions: Initial denaturation at 95° C. for 5 min followed by cycles of denaturation (95° C. for 15 sec), primer annealing (60° C. for 1 min) and transcript extension ([…]) for 40 cycles.

TBL1 = molecular target: T1, TBL1 (Homo sapiens, UniProt O60907); details: background statement, no method given; cited from earlier work
T1 sequence (O60907 1-577): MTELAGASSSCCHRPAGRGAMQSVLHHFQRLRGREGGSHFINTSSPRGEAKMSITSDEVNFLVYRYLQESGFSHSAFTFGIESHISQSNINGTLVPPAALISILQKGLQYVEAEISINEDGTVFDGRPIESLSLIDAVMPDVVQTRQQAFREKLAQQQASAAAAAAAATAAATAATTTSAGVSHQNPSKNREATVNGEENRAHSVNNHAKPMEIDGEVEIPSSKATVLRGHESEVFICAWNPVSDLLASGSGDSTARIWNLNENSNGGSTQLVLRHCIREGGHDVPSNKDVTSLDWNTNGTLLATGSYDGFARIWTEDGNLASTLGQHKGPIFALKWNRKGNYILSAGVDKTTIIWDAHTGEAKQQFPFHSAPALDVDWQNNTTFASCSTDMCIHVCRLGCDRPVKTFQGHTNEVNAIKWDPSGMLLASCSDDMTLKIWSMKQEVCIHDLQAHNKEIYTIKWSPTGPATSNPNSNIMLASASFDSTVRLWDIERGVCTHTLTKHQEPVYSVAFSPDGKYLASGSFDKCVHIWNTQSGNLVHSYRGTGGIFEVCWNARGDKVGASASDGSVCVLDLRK

[2] = test system: bleomycin-induced pulmonary fibrosis; assay: Bleomycin-induced pulmonary fibrosis mouse model, intravenous Tegavivint; assay type: in vivo, C57BL/6 wild-type mice; details: 50 mg/kg biw tail-vein injection
Experimental: In a pilot study, Tegavivint at 50 mg/kg was administered biw (twice a week) via tail-vein injection to C57BL/6 wild-type mice. Bleomycin was administered to the mice intratracheally on day 0 to induce pulmonary fibrosis, and Tegavivint or the vehicle (5% dextrose in water) was administered on days 6, 10, 14, 18 and 21. The purpose of this experiment was to evaluate the effect of systemically-administered Tegavivint on bleomycin-induced pulmonary fibrosis in vivo.

[3] = Lung concentration after nebulizing delivery of Tegavivint formulations (whole body exposure); assay type: in vivo, bcat-Ex3 mice; details: mouse lung, individual animals, listed as BC2059
Experimental: Tegavivint particles suspended in Poloxamer 188/sorbitol at a concentration of 25 mg/mL were used. These formulations were applied to the mice in the form of aerosols, through the method of whole body exposure. The mice were placed inside a plastic box. This box was sealed and connected by one of its sides to the outlet of the nebulizer device, and on the other side to a system of closed water. The whole procedure was carried out inside the fume hood of the animal room.
For the first experiment, the nebulizer kit of SATER LABS was used. This device uses the jet system. The device was primed with 5 ml of the drug, i.e. 125 mg of tegavivint (BC2059), for each group of 5 mice, and then the device was connected to the power source for nebulization. The energy was supplied by a DeVilbiss compressor model 646, which allows 5-7 pounds of pressure, and a flow of 6-8 liters per minute. For the second experiment, the device used was the Altera, ultrasonic nebulizer.
For the two experiments, 10 male bcat-Ex3 mice were used for each set. These mice were separated into 2 groups of 5 mice each. The first group received the drug daily, for 5 consecutive days. The second group received the drug only once (the fifth day). On day 5 all mice were sacrificed, lung harvested, and samples were stored at −30 degrees, in two labeled nylon bags, each containing the 5 samples from each group.

[4] = ≤25 pM, 48 hrs, DD180, PF180, CT38 cells
[5] = Tegavivint alone (no bleomycin)
[6] = Aerosol jet nebulizer (Sater Labs), 1 day (single-dose on Day 5)
[7] = Aerosol jet nebulizer (Sater Labs), 5 day (5 daily doses on Days 1-5)
[8] = Nebulizer ultrasonic eRapid (Altera), 1 day (single-dose on Day 5)
[9] = Nebulizer ultrasonic eRapid (Altera), 5 day (5 daily doses on Days 1-5)

pulmonary compliance [2, 5]: no effect
total soluble collagen content in lung tissue (Sircol assay) [2, 5]: no effect
Substance: Tegavivint
effects on the expression of genes that associate with nuclear β-catenin ([1]; cells treated with ≥25 pM): No discernible effects
effects on gene expression ([1]; ≤25 pM): did not identify any consistent effects
CTNNB1 expression [1, 4]: no evidence of a compensatory increase
EGR1 expression levels [1, 4]: did not see any evidence of BC-2059-induced changes
NRG1 expression levels [1, 4]: did not see any evidence of BC-2059-induced changes
WISP1 expression levels [1, 4]: did not see any evidence of BC-2059-induced changes
interaction with TBL1 (TBL1): interact with TBL1
pulmonary compliance ([2]; Tegavivint after bleomycin): partially restored
total soluble collagen content in lung tissue (Sircol assay) ([2]; Tegavivint after bleomycin): completely restored the collagen level to the same as vehicle-only controls
Lung Concentration (ng/g) [3, 6]: 5040 ng/g and 16800 ng/g and 56800 ng/g and 5200 ng/g and 17100 ng/g
Lung Concentration (ng/mL) [3, 6]: 1260 ng/mL and 4190 ng/mL and 14200 ng/mL and 1300 ng/mL and 4270 ng/mL
Lung Concentration (ng/g) [3, 7]: 18600 ng/g and 6600 ng/g and 14500 ng/g and 12300 ng/g and 14200 ng/g
Lung Concentration (ng/mL) [3, 7]: 4640 ng/mL and 1650 ng/mL and 3620 ng/mL and 3080 ng/mL and 3550 ng/mL
Lung Concentration (ng/g) [3, 8]: 11400 ng/g and 11600 ng/g and 34600 ng/g and 15100 ng/g and 2400 ng/g
Lung Concentration (ng/mL) [3, 8]: 2840 ng/mL and 2910 ng/mL and 8660 ng/mL and 3780 ng/mL and 601 ng/mL
Lung Concentration (ng/g) [3, 9]: 19100 ng/g and 17200 ng/g and 18800 ng/g and 12200 ng/g and 22900 ng/g
Lung Concentration (ng/mL) [3, 9]: 4770 ng/mL and 4290 ng/mL and 4690 ng/mL and 3040 ng/mL and 5730 ng/mL
